How the values were obtained:
[1] = Metabolic stability in human liver microsomes; format: in vitro ADME; settings: up to 120 min
Description: Pooled liver microsomes from humans (male) were purchased from Sekisui XenoTech, LLC, Kansas City, KS, USA. Metabolic stability assays were performed in the presence of an NADPH-regenerating system consisting of 5 mM glucose-6-phosphate, 5 U/mL glucose-6-phosphate dehydrogenase, and 1 mM NADP^+. Liver microsomes (20 mg/mL), NADPH-regenerating system, and 4 mM MgCl2·6 H2O in 0.1 M TRIS-HCl-buffer (pH 7.4) were preincubated for 5 min at 37 °C and 750 rpm on a shaker. The reaction was started by adding the preheated compound at 10 mM resulting in a final concentration of 0.1 mM. The reaction was quenched at selected time points (0, 10, 20, 30, 60, and 120 min) by pipetting 100 μL of internal standard (ketoprofen) at a concentration of 150 μM in acetonitrile. The samples were vortexed for 30 s and centrifuged (21910 relative centrifugal force, 4 °C, 20 min). The supernatant was used directly for LC-MS analysis. All compound incubations were conducted at least in triplicates. Additionally, a negative control containing BSA (20 mg/mL) instead of liver microsomes and a positive control using verapamil instead of compound were performed. A limit of 1% organic solvent during incubation was not exceeded. […]

ALK(C1156Y) = ALK(C1156Y) (Homo sapiens, UniProt Q9UM73, C1156Y); test: KINOMEscan; format: binding; settings: 1 μM
BMPR1B = molecular target: T1, BMPR1B (Homo sapiens, UniProt O00238); test: KINOMEscan; format: binding; settings: 1 μM
T1 construct: purchased Eurofins DiscoverX Corporation (KINOMEscan)

CDC2L5 = molecular target: T2, CDC2L5 (Homo sapiens, UniProt Q14004); test: KINOMEscan; format: binding; settings: 1 μM
T2 construct: purchased Eurofins DiscoverX Corporation (KINOMEscan)
Description: (§1) Figure S19 : Metabolic stability determination of 4 in human liver microsomes, compared to a negative control containing bovine serum albumin instead of liver microsomes and a positive control using verapamil instead of compound.
(§2) Table S7 : Data was obtained from KINOMEscan TM using 1 μM of compound 4 against 468 kinases. Eurofins DiscoverX Corporation (San Diego), CA 92121, USA. Results stated as percent of control (POC), where lower values are associated with lower Kd values. […]
(§3) ABL1(F317L)-nonphosphorylated 37 […]
(§4) (1 picture or pasted object on this page, not shown here)

PRP4 = PRP4 (Homo sapiens, UniProt Q13523); test: KINOMEscan; format: binding; settings: 1 μM
Description: as §1, §2, §3, §4

CDK4-cyclinD1 = CDK4-cyclinD1 (Homo sapiens, UniProt P11802); test: KINOMEscan; format: binding; settings: 1 μM
DDR2 = molecular target: T3, DDR2 (Homo sapiens, UniProt Q16832); test: KINOMEscan; format: binding; settings: 1 μM
T3 construct: purchased Eurofins DiscoverX Corporation

EPHB1 = EPHB1 (Homo sapiens, UniProt P54762); test: KINOMEscan; format: binding; settings: 1 μM
ERBB2 = ERBB2 (Homo sapiens, UniProt P04626); test: KINOMEscan; format: binding; settings: 1 μM
FLT4 = molecular target: T4, FLT4 (Homo sapiens, UniProt P35916); test: KINOMEscan; format: binding; settings: 1 μM
T4 construct: purchased Eurofins DiscoverX Corporation

GRK3 = molecular target: T5, GRK3 (Homo sapiens, UniProt P35626); test: KINOMEscan; format: binding; settings: 1 μM
T5 construct: purchased Eurofins DiscoverX Corporation

GSK3A = molecular target: T6, GSK3A (Homo sapiens, UniProt P49840); test: KINOMEscan; format: binding; settings: 1 μM
T6 construct: purchased Eurofins DiscoverX Corporation

GSK3B = molecular target: T7, GSK3B (Homo sapiens, UniProt P49841); test: KINOMEscan; format: binding; settings: 1 μM
T7 construct: purchased Eurofins DiscoverX Corporation

LATS2 = molecular target: T8, LATS2 (Homo sapiens, UniProt Q9NRM7); test: KINOMEscan; format: binding; settings: 1 μM
T8 construct: purchased Eurofins DiscoverX Corporation

MAK = molecular target: T9, MAK (Homo sapiens, UniProt P20794); test: KINOMEscan; format: binding; settings: 1 μM
T9 construct: purchased Eurofins DiscoverX Corporation

MRCKA = molecular target: T10, MRCKA (Homo sapiens, UniProt Q5VT25); test: KINOMEscan; format: binding; settings: 1 μM
T10 construct: purchased Eurofins DiscoverX Corporation

NDR2 = molecular target: T11, NDR2 (Homo sapiens, UniProt Q9Y2H1); test: KINOMEscan; format: binding; settings: 1 μM
T11 construct: purchased Eurofins DiscoverX Corporation

PFCDPK1(P.falciparum) = PFCDPK1(P.falciparum) (Plasmodium falciparum, UniProt P62344); test: KINOMEscan; format: binding; settings: 1 μM
PIK3C2B = PIK3C2B (Homo sapiens, UniProt O00750); test: KINOMEscan; format: binding; settings: 1 μM
PIP5K2C = PIP5K2C (Homo sapiens, UniProt Q8TBX8); test: KINOMEscan; format: binding; settings: 1 μM
[2] = molecular target: RSK3(Kin.Dom.1-N-terminal) (Homo sapiens, UniProt Q15349); test: KINOMEscan; format: binding; settings: 1 μM
SGK = SGK (Homo sapiens, UniProt O00141); test: KINOMEscan; format: binding; settings: 1 μM
SgK110 = SgK110 (Homo sapiens, UniProt P0C264); test: KINOMEscan; format: binding; settings: 1 μM
TGFBR2 = molecular target: T12, TGFBR2 (Homo sapiens, UniProt P37173); test: KINOMEscan; format: binding; settings: 1 μM
T12 construct: purchased Eurofins DiscoverX Corporation

TRKC = molecular target: T13, TRKC (Homo sapiens, UniProt Q16288); test: KINOMEscan; format: binding; settings: 1 μM
T13 construct: purchased Eurofins DiscoverX Corporation
T13 sequence (Q16288 32-839): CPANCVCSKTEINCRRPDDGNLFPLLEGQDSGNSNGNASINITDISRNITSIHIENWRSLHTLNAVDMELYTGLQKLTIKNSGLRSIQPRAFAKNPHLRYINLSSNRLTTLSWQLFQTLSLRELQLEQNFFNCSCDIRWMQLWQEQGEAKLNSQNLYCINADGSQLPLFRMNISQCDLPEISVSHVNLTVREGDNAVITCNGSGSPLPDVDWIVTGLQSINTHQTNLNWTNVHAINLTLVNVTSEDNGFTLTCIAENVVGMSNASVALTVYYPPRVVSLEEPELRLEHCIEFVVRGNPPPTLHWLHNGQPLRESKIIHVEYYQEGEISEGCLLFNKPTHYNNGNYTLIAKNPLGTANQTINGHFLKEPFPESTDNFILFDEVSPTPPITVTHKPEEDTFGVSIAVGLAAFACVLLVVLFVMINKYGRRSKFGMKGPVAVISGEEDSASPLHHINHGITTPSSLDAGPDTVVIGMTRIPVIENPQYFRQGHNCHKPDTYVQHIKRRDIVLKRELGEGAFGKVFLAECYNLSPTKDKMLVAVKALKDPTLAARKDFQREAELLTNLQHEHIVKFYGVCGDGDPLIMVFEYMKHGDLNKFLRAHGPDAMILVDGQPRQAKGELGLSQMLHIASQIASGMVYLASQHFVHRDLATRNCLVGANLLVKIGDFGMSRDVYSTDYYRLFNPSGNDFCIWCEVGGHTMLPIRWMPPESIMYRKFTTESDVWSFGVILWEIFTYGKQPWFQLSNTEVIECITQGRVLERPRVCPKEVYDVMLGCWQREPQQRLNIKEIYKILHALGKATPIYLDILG

T8 sequence (Q9NRM7 whole entry): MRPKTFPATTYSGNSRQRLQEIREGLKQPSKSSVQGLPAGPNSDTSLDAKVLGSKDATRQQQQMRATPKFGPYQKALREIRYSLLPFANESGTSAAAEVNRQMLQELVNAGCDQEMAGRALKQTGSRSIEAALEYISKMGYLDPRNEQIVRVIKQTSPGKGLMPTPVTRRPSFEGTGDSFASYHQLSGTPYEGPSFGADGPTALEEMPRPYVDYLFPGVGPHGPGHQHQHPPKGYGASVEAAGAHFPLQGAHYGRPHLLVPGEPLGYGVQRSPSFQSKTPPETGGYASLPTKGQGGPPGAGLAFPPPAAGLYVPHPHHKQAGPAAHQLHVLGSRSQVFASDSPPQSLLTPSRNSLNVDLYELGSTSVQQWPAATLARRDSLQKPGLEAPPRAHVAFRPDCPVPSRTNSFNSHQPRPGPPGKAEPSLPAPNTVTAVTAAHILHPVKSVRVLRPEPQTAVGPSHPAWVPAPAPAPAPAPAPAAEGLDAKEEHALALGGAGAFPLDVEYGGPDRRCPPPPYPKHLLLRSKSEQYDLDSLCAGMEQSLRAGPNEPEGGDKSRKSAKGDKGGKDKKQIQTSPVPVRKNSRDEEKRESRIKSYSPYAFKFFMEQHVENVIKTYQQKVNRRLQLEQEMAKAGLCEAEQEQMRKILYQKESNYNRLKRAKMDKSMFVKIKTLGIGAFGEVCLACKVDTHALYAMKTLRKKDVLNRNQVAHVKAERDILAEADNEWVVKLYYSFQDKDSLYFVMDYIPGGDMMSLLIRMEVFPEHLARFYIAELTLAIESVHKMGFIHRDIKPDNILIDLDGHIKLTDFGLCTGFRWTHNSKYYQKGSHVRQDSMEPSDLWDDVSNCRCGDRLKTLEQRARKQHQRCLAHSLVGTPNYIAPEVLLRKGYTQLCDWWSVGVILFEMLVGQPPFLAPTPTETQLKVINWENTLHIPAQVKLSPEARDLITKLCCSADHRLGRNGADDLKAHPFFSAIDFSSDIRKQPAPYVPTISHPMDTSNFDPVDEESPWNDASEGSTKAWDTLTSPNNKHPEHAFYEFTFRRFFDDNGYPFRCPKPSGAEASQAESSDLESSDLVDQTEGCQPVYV
Chain of CDK4-cyclinD1 (P11802 whole entry): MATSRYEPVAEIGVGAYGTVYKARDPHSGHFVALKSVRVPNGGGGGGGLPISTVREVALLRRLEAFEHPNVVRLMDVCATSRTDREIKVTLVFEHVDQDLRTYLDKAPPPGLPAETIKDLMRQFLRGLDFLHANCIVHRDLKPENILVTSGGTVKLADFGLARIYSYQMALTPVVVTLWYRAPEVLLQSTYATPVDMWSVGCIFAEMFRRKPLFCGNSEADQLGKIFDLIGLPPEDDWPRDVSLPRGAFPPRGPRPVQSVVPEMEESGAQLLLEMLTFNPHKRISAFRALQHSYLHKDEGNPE
Chain of CDK4-cyclinD1 (P24385 whole entry partner): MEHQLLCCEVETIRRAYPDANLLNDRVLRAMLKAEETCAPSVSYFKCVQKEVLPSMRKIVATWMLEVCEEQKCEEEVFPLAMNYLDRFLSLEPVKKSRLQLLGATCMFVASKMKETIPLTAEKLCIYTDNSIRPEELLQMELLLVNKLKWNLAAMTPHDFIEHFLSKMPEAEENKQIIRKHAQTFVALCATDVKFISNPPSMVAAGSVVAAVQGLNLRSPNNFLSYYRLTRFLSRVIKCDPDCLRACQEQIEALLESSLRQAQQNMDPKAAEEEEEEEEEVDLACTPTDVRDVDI
T6 sequence (P49840 whole entry): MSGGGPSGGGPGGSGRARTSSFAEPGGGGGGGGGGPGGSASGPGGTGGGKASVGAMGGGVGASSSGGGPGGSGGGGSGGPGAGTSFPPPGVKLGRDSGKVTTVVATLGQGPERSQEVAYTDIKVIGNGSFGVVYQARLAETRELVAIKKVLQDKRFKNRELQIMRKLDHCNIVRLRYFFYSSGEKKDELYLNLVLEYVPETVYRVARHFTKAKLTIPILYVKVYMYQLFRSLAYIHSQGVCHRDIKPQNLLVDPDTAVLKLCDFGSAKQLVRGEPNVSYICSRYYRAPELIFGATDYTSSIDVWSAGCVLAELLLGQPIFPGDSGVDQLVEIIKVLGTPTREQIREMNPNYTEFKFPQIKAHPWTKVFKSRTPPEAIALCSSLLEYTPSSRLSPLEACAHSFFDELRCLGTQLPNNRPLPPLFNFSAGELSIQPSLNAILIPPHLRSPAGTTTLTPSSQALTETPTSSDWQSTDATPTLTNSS
Chain of PIP5K2C (Q8TBX8 whole entry): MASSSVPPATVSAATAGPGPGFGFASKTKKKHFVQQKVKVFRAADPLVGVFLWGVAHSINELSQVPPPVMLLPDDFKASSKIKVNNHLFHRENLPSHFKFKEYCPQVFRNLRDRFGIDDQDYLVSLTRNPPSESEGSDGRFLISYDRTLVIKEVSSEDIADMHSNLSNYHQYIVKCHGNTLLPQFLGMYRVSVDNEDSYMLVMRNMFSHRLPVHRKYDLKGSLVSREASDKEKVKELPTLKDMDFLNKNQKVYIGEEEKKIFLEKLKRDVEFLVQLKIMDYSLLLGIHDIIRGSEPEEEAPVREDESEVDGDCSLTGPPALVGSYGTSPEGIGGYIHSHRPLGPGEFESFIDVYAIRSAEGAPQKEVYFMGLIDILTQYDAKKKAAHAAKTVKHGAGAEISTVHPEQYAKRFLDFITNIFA
T5 sequence (P35626 whole entry): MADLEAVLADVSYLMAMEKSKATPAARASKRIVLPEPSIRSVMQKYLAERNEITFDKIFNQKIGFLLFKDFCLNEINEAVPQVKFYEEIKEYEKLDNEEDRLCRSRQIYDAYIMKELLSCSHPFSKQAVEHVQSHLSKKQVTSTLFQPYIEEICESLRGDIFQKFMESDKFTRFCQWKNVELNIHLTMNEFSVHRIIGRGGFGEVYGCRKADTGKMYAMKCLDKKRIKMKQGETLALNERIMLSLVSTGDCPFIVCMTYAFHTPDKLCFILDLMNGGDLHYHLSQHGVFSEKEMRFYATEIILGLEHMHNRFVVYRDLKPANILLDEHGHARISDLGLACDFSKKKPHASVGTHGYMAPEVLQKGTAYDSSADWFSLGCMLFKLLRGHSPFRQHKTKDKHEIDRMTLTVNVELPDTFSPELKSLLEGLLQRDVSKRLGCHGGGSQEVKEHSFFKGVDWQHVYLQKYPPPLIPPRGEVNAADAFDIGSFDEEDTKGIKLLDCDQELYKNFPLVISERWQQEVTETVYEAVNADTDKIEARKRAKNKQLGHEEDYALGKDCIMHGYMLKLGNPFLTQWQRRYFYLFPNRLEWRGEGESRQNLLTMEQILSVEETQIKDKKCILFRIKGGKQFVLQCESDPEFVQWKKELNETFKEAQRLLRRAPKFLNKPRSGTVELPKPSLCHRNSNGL
T3 sequence (Q16832 22-855): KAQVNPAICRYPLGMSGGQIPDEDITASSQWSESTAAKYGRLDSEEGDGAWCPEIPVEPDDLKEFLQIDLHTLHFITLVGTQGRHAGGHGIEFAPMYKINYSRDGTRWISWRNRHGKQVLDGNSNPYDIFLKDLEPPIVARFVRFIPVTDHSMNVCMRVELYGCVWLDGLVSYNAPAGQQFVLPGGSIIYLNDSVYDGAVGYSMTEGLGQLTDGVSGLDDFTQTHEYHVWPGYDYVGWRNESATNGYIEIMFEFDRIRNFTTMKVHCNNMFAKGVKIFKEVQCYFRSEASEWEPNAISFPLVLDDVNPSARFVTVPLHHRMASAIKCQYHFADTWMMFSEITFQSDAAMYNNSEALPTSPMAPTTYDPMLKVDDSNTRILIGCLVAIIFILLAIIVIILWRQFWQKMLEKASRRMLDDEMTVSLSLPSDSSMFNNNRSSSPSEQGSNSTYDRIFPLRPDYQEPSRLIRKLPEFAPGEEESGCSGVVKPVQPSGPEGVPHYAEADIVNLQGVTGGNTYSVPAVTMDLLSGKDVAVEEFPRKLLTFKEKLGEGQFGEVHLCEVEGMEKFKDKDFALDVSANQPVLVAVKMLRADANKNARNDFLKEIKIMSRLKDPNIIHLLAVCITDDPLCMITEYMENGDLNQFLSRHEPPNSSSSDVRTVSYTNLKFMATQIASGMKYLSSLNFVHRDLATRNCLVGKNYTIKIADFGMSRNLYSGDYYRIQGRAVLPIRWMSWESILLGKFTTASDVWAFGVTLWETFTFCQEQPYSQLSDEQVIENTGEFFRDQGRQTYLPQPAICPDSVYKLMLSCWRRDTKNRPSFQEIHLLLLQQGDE

## C=CC(=O)Nc1ccc(OC)c(Nc2cc(-c3[nH]c(CC)nc3-c3cccc(NC(=O)c4cccc5c4NC(=O)c4ccccc4N5)c3)ccn2)c1 [Compound 4]
[1]
  metabolic stability in liver microsomes: metabolically stable
ALK(C1156Y)
  POC: 87% of control
BMPR1B
  POC: 100% of control
CDC2L5
  POC: 74% of control
PRP4
  POC: 46% of control
CDK4-cyclinD1
  POC: 94% of control
DDR2
  POC: 100% of control
EPHB1
  POC: 92% of control
ERBB2
  POC: 18% of control
FLT4
  POC: 100% of control
GRK3
  POC: 100% of control
GSK3A
  POC: 65% of control
GSK3B
  POC: 100% of control
LATS2
  POC: 62% of control
MAK
  POC: 89% of control
MRCKA
  POC: 0% of control
NDR2
  POC: 77% of control
PFCDPK1(P.falciparum)
  POC: 87% of control
PIK3C2B
  POC: 74% of control
PIP5K2C
  POC: 66% of control
[2]
  POC: 97% of control
SGK
  POC: 86% of control
SgK110
  POC: 100% of control
TGFBR2
  POC: 75% of control
TRKC
  POC: 87% of control

Reference: article PMC10879502, “Linking ATP and allosteric sites to achieve superadditive binding with bivalent EGFR kinase inhibitors” (Communications Chemistry, 2024)
